The results in this text go back to PMC7830330, “A New CDK2 Inhibitor with 3-Hydrazonoindolin-2-One Scaffold Endowed with Anti-Breast Cancer Activity: Design, Synthesis, Biological Evaluation, and In Silico Insights” (Molecules, 2021).

Format in all cases: biochemical
The target in test [1] is T1, c-Met (Homo sapiens, UniProt P08581). As to the kind of experiment: Kinase-Glo Plus luminescence kinase assay, single dose […].
Another test concerns the target T2, CDK2 (Homo sapiens, UniProt P24941).
T2 construct: with cyclin E (IC50)
Put plainly: in vitro kinase assay, dose-response on CDK2/E (Kinase-Glo Plus luminescence described for CDK2/cyclin A2).

The target in test [2] is T1, c-Met. As to the kind of experiment: Kinase-Glo Plus luminescence kinase assay, single dose […] (weak, partial inhibition). For orientation: Kinase-Glo reads ATP consumption through a luciferase reaction.

As a reminder, the inhibition is the share of the control response that was lost under treatment. By IC50 is commonly meant the midpoint of a concentration-inhibition curve.

T1 sequence (P08581 25-307): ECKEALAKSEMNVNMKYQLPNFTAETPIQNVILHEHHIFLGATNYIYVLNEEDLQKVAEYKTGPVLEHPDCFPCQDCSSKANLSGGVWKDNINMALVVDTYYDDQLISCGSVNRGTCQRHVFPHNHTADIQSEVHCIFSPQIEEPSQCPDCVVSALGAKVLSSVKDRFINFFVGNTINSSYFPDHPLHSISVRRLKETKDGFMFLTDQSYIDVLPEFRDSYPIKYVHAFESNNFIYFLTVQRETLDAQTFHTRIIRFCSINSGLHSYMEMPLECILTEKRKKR
T1 sequence (P08581 308-1390): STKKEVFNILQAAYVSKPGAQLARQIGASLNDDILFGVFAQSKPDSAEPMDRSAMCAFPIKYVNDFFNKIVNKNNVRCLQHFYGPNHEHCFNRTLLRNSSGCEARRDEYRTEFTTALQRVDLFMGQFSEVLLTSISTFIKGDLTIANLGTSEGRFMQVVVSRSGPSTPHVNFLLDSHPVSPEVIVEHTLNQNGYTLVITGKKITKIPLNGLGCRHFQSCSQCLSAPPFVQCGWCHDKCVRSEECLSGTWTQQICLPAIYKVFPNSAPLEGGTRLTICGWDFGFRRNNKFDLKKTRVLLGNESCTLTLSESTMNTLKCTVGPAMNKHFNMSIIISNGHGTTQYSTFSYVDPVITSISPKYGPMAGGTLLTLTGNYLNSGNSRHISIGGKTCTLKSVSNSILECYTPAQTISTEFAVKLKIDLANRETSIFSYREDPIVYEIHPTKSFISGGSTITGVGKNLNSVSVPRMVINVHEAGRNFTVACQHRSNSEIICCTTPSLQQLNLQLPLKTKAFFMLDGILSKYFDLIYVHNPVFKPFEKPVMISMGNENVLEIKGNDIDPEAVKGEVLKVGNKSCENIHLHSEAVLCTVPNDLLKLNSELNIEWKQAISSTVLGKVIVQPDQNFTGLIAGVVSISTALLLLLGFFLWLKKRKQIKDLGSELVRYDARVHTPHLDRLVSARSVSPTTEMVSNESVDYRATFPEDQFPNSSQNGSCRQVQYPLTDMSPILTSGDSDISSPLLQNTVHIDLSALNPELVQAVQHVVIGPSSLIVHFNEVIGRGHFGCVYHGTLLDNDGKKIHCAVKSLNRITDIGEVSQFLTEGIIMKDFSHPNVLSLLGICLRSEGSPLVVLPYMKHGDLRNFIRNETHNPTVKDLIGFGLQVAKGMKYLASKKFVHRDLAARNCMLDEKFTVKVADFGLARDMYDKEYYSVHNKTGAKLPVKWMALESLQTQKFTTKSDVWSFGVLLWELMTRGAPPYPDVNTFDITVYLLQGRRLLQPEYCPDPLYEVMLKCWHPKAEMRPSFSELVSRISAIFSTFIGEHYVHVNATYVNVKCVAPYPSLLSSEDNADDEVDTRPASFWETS

As to `CN[C@@H]1C[C@H]2O[C@@](C)([C@@H]1OC)n1c3ccccc3c3c4c(c5c6ccccc6n2c5c31)C(=O)NC4` [Staurosporine], the inhibition at 10 µM at c-Met [1] was 100%.

`COc1ccc2c(c1)/C(=N\NC(=O)Cc1c[nH]c3ccccc13)C(=O)N2` [HI 5]: the concentration for half-maximal inhibition (IC50) at CDK2 worked out at 6.32 µM. In addition, the inhibition at 10 µM on c-Met [2] was determined as 27%.
